{
  "source": "paper PMC7180948",
  "about": "“New Insights into 4-Anilinoquinazolines as Inhibitors of Cardiac Troponin I–Interacting Kinase (TNNi3K)” (Molecules, 2020)",
  "test_in_all_cases": "biochemical",
  "design_in_all_cases": "KINOMEscan competition binding panel (Eurofins DiscoverX), single concentration, % inhibition",
  "conditions_in_all_cases": "read-out: 7 at 1 µM % inhibition",
  "key": {"[1]": {"molecular_target": "T1, RPS6KA5(Kin.Dom.1-N-terminal) (Homo sapiens, UniProt O75582)", "T1 construct": "Kin.Dom.1-N-terminal", "description": "(§1) KinomeScan® Assay on 7 and 15 was performed as previously described by EuroFins DiscoverX [24]. GSK114 (7) and 15 were submitted for a KINOMEscan® assay to explore the selectivity profile across >400 human kinases at a compound concentration of 1 µM. […] GSK114 (7) is a narrow-spectrum TNNi3K inhibitor but has some potent off-targets including GAK which has been previously reported for this chemotype. […] If utilized together this set of compounds could be useful to investigate TNNi3K biology."}, "[2]": {"molecular_target": "T2, ABL1(T315I)-phosphorylated (Homo sapiens, UniProt P00519, T315I)", "T2 construct": "phosphorylated", "description": "as §1"}, "HUNK": {"molecular_target": "HUNK (Homo sapiens, UniProt P57058)", "sequence (P57058 whole entry)": "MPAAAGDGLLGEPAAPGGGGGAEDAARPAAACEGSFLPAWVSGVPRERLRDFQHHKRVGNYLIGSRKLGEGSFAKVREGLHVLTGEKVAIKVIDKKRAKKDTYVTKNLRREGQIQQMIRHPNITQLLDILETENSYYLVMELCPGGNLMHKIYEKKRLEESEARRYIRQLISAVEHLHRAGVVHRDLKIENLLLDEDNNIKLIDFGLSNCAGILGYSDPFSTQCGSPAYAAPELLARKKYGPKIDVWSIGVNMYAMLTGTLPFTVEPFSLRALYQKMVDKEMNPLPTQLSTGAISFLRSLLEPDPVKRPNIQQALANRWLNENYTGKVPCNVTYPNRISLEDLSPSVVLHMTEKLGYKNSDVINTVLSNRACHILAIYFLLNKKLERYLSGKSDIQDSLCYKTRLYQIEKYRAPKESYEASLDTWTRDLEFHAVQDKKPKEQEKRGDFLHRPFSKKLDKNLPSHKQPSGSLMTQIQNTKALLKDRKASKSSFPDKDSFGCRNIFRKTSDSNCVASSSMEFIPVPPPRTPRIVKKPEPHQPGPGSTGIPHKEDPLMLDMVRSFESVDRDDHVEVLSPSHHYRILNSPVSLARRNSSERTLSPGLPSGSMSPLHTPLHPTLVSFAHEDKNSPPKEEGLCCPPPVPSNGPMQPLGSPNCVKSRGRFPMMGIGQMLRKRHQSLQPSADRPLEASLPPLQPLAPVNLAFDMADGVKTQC", "description": "as §1"}, "RET(V804L)": {"molecular_target": "RET(V804L) (Homo sapiens, UniProt P07949, V804L)", "description": "as §1"}, "NEK3": {"molecular_target": "NEK3 (Homo sapiens, UniProt P51956)", "sequence (P51956 whole entry)": "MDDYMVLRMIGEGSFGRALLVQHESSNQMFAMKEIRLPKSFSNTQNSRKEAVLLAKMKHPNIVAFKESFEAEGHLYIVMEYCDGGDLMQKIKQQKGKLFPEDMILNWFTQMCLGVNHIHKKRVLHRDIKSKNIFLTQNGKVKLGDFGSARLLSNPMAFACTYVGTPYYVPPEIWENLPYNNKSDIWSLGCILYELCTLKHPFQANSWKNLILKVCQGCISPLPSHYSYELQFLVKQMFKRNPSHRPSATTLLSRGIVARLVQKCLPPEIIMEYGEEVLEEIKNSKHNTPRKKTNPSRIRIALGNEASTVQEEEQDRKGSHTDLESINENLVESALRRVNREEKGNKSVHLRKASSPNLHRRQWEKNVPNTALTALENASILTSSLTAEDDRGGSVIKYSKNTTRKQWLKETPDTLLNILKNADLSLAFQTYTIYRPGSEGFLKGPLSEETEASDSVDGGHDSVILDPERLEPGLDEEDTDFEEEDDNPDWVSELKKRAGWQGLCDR", "description": "as §1"}, "SNARK": {"molecular_target": "T3, SNARK (Homo sapiens, UniProt Q9H093)", "T3 construct": "gene NUAK2", "description": "as §1"}, "MERTK": {"molecular_target": "MERTK (Homo sapiens, UniProt Q12866)", "description": "as §1"}, "EGFR(S752-I759del)": {"molecular_target": "EGFR(S752-I759del) (Homo sapiens, UniProt P00533, DEL752-759)", "description": "as §1"}, "[3]": {"molecular_target": "T4, ABL1(F317L)-nonphosphorylated (Homo sapiens, UniProt P00519, F317L)", "T4 construct": "nonphosphorylated", "description": "as §1"}, "FGFR3(G697C)": {"molecular_target": "FGFR3(G697C) (Homo sapiens, UniProt P22607, G697C)", "description": "as §1"}, "TEC": {"molecular_target": "TEC (Homo sapiens, UniProt P42680)", "sequence (P42680 whole entry)": "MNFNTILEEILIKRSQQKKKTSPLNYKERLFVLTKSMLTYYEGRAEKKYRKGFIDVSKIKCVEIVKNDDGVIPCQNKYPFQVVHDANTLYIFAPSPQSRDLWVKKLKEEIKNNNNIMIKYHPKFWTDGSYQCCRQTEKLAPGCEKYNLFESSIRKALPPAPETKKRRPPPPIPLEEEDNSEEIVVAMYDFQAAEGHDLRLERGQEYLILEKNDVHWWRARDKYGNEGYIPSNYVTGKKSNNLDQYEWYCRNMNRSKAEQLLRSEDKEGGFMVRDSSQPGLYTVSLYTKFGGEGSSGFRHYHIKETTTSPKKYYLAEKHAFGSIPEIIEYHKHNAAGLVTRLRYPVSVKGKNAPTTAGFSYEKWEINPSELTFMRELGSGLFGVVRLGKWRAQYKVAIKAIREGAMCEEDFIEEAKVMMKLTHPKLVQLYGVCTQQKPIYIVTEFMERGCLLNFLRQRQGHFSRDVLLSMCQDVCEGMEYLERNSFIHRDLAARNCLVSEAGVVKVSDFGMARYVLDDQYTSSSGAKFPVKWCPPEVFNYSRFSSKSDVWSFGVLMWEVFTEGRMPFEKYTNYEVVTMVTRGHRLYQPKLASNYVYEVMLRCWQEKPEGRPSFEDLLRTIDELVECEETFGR", "description": "as §1"}, "FLT3(D835H)": {"molecular_target": "FLT3(D835H) (Homo sapiens, UniProt P36888, D835H)", "description": "as §1"}, "SRMS": {"molecular_target": "SRMS (Homo sapiens, UniProt Q9H3Y6)", "sequence (Q9H3Y6 whole entry)": "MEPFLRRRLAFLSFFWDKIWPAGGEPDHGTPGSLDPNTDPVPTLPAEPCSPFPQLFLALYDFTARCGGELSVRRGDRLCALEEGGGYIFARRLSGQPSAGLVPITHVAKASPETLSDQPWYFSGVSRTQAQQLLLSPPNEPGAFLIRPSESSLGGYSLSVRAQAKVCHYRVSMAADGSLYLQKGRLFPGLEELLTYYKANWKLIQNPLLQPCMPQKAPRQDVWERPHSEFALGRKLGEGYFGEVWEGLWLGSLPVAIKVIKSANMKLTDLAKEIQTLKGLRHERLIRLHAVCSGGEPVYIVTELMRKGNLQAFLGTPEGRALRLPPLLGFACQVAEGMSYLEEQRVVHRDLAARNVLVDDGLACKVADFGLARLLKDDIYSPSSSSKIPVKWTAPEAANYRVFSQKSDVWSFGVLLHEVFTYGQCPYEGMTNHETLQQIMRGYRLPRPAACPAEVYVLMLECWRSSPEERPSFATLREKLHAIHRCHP", "description": "as §1"}, "RIPK1": {"molecular_target": "RIPK1 (Homo sapiens, UniProt Q13546)", "sequence (Q13546 whole entry)": "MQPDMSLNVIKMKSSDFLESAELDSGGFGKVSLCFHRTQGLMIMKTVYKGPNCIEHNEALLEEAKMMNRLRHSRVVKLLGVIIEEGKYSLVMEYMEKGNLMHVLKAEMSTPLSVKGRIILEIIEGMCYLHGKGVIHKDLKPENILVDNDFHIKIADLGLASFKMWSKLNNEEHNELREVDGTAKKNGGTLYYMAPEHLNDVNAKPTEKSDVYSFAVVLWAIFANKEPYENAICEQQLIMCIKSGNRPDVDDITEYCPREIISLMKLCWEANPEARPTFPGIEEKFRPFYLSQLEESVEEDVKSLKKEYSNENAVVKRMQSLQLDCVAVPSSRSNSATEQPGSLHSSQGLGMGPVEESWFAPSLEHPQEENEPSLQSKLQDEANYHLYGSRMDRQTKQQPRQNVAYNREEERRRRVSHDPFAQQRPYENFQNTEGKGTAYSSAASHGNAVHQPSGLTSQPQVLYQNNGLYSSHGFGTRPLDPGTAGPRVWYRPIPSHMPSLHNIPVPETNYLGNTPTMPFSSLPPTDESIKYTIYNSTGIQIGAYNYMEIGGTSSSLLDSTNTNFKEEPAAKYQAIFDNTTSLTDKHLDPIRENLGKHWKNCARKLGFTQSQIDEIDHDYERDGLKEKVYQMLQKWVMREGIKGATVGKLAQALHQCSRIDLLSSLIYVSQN", "description": "as §1"}, "[4]": {"molecular_target": "T5, ABL1(F317L)-phosphorylated (Homo sapiens, UniProt P00519, F317L)", "T5 construct": "phosphorylated", "description": "as §1"}, "ANKK1": {"molecular_target": "ANKK1 (Homo sapiens, UniProt Q8NFD2)", "description": "as §1"}, "MKNK1": {"molecular_target": "MKNK1 (Homo sapiens, UniProt Q9BUB5)", "description": "as §1"}, "SNRK": {"molecular_target": "SNRK (Homo sapiens, UniProt Q9NRH2)", "description": "as §1"}, "TBK1": {"molecular_target": "TBK1 (Homo sapiens, UniProt Q9UHD2)", "sequence (Q9UHD2 whole entry)": "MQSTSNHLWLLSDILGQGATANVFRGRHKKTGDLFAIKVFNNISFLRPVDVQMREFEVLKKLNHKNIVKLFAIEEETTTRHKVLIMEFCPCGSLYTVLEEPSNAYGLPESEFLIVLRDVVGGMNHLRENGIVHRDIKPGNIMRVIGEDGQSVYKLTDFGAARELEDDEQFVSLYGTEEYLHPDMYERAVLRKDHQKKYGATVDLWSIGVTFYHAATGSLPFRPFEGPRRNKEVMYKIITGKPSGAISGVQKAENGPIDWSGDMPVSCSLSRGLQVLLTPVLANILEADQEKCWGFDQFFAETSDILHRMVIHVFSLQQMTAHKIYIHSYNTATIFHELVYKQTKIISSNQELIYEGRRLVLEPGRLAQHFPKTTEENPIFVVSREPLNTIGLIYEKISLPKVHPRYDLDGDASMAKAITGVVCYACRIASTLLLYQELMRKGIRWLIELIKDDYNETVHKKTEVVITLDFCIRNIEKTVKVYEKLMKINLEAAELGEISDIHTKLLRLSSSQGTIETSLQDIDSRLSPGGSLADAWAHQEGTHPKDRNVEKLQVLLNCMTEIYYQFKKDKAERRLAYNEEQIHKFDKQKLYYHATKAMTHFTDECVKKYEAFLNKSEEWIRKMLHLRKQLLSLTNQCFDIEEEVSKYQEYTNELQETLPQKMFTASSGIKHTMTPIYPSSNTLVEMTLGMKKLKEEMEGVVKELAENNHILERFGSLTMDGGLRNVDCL", "description": "as §1"}, "JNK3": {"molecular_target": "T6, JNK3 (Homo sapiens, UniProt P53779)", "T6 construct": "gene MAPK10", "T6 sequence (P53779 whole entry)": "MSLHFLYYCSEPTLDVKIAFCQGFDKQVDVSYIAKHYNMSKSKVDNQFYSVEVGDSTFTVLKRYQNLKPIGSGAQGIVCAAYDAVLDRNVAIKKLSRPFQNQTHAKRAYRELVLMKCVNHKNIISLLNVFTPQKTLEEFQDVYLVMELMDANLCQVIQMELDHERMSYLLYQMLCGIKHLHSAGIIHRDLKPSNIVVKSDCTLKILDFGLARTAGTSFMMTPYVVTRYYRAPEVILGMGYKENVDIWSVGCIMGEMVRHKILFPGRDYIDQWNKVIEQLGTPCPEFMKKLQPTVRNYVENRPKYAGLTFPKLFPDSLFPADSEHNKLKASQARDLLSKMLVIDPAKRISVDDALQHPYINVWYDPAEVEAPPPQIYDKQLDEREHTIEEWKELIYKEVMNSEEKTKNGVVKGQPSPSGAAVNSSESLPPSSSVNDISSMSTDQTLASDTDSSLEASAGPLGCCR", "description": "as §1"}, "FES": {"molecular_target": "FES (Homo sapiens, UniProt P07332)", "sequence (P07332 whole entry)": "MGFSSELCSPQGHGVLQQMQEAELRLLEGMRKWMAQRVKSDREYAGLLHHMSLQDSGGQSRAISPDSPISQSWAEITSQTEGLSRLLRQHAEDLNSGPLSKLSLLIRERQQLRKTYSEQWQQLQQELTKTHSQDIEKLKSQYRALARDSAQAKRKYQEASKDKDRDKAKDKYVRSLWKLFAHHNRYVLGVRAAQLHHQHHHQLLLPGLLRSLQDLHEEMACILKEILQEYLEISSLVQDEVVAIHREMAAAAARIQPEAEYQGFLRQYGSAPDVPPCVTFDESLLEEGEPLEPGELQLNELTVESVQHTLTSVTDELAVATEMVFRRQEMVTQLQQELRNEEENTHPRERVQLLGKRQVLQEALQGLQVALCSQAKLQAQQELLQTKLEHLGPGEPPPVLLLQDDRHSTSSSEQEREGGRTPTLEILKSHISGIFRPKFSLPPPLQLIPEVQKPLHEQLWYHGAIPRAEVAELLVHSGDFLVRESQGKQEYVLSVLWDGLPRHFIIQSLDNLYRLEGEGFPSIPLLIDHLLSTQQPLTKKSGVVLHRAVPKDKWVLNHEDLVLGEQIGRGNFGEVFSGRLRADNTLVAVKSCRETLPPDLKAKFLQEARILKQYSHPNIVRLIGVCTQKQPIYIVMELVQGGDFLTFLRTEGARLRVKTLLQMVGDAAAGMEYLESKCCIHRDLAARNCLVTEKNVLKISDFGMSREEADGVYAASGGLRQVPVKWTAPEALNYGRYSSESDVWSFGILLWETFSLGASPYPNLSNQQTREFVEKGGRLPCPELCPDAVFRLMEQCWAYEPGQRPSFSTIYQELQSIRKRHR", "description": "as §1"}, "NEK4": {"molecular_target": "NEK4 (Homo sapiens, UniProt P51957)", "description": "as §1"}, "MKNK2": {"molecular_target": "MKNK2 (Homo sapiens, UniProt Q9HBH9)", "description": "as §1"}, "EIF2AK1": {"molecular_target": "EIF2AK1 (Homo sapiens, UniProt Q9BQI3)", "description": "as §1"}},
  "data": [
    {"smiles": "CNS(=O)(=O)c1ccc(N(C)C)c(Nc2ncnc3cc(OC)c(OC)cc23)c1", "note": "[compound 7, 3-((6,7-dimethoxyquinazolin-4-yl)amino)-4-(dimethylamino)-N-methylbenzenesulfonamide]", "values": [
      {"measurement": "inhibition at 1 µM", "setting": "[1]", "value": 7, "unit": "%"},
      {"measurement": "inhibition at 1 µM", "setting": "[2]", "value": 0, "unit": "%"},
      {"measurement": "inhibition at 1 µM", "setting": "HUNK", "value": 0, "unit": "%"},
      {"measurement": "inhibition at 1 µM", "setting": "RET(V804L)", "value": 0, "unit": "%"},
      {"measurement": "inhibition at 1 µM", "setting": "NEK3", "value": 0, "unit": "%"},
      {"measurement": "inhibition at 1 µM", "setting": "SNARK", "value": 0, "unit": "%"},
      {"measurement": "inhibition at 1 µM", "setting": "MERTK", "value": 0, "unit": "%"},
      {"measurement": "inhibition at 1 µM", "setting": "EGFR(S752-I759del)", "value": 29, "unit": "%"},
      {"measurement": "inhibition at 1 µM", "setting": "[3]", "value": 29, "unit": "%"},
      {"measurement": "inhibition at 1 µM", "setting": "FGFR3(G697C)", "value": 0, "unit": "%"},
      {"measurement": "inhibition at 1 µM", "setting": "TEC", "value": 0, "unit": "%"},
      {"measurement": "inhibition at 1 µM", "setting": "FLT3(D835H)", "value": 20, "unit": "%"},
      {"measurement": "inhibition at 1 µM", "setting": "SRMS", "value": 41, "unit": "%"},
      {"measurement": "inhibition at 1 µM", "setting": "RIPK1", "value": 0, "unit": "%"},
      {"measurement": "inhibition at 1 µM", "setting": "[4]", "value": 0, "unit": "%"},
      {"measurement": "inhibition at 1 µM", "setting": "ANKK1", "value": 19, "unit": "%"},
      {"measurement": "inhibition at 1 µM", "setting": "MKNK1", "value": 10, "unit": "%"},
      {"measurement": "inhibition at 1 µM", "setting": "SNRK", "value": 14, "unit": "%"},
      {"measurement": "inhibition at 1 µM", "setting": "TBK1", "value": 0, "unit": "%"},
      {"measurement": "inhibition at 1 µM", "setting": "JNK3", "value": 0, "unit": "%"},
      {"measurement": "inhibition at 1 µM", "setting": "FES", "value": 0, "unit": "%"},
      {"measurement": "inhibition at 1 µM", "setting": "NEK4", "value": 12, "unit": "%"},
      {"measurement": "inhibition at 1 µM", "setting": "MKNK2", "value": 13, "unit": "%"},
      {"measurement": "inhibition at 1 µM", "setting": "EIF2AK1", "value": 0, "unit": "%"}
    ]}
  ]
}
